Laboratory results reported in article PMC10811744 (Molecular cancer therapeutics, 2023).
Where “and” joins values, the source holds several entries; their conditions need not be identical. Equal values may be shown once. Read-outs that look alike come from different tables or passages of the source.

Tests used:
[1] = target: ERα (Homo sapiens, UniProt P03372); experiment: ERE-Luc reporter gene assay in HEK293T cells expressing ERα; assay type: cell-based; conditions: 24 hours
[2] = target: T1, ERβ (Homo sapiens, UniProt Q92731); experiment: ERE-Luc reporter gene assay in HEK293T cells expressing ERβ; assay type: cell-based; conditions: 24 hours
T1 sequence (Q92731 whole entry): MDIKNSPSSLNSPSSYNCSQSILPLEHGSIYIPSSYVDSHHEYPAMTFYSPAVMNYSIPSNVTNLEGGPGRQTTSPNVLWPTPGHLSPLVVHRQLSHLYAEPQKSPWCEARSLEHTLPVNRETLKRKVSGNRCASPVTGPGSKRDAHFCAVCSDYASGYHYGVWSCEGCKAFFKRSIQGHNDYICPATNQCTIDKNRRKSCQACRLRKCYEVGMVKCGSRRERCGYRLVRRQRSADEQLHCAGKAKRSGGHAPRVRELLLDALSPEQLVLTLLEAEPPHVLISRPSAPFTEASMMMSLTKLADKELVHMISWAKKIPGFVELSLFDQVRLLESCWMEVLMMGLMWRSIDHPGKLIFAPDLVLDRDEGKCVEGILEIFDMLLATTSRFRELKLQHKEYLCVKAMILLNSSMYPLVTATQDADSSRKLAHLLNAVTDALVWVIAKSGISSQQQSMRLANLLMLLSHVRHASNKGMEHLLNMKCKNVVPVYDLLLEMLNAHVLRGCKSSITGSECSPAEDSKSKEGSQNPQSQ

[3] = target: T1, ERβ; experiment: PolarScreen ER competitive binding assay; conditions: based on EC50 values from polar screen ERα and ERβ assays
[4] = tested on: U251- ERβ KO cells; experiment: Invasion and colony formation of U251-ERβ KO cells; assay type: cell-based, human
[5] = tested on: normal human astrocytes; experiment: MTT cell viability assay, normal human astrocytes; assay type: cell-based
[6] = tested on: U251-ERβ-KO cells; experiment: MTT cell viability assay, U251-ERβ-KO cells; assay type: cell-based, human
[7] = tested on: U251 GBM model cells expressing ERβ; experiment: MTT cell viability assay, U251 GBM model cells expressing ERβ; assay type: cell-based, human; conditions: read-out: growth inhibitory activity IC50
[8] = tested on: U251 subcutaneous xenograft; conditions: 20 mg/kg/day i.p.
[9] = tested on: U251 and U87 GBM model cells; experiment: Matrigel invasion chamber assay; assay type: cell-based, human; conditions: 10μM, 22h
[10] = mouse, in vivo, ip, 20 mg/kg
[11] = tested on: U251 and U87 cells; experiment: Colony formation; assay type: cell-based, human; conditions: 10 μM
[12] = tested on: GBM cells; experiment: Annexin V/PI apoptosis assay; assay type: cell-based, human; conditions: 20 μM
[13] = tested on: GSC-040815 orthotopic tumor; experiment: Orthotopic xenograft model with patient-derived GSC-040815 cells; assay type: in vivo, SCID mice; conditions: 50 mg/kg/i.p.
[14] = tested on: SOX2, and OCT4; experiment: Western blotting of stemness markers in GSCs; assay type: cell-based, human
[15] = tested on: GBM cells; experiment: GBM cell viability; assay type: cell-based, human; conditions: read-out: GBM cell viability IC50
[16] = tested on: orthotopic U251 tumor; experiment: Orthotopic U251 xenograft model; assay type: in vivo, mice; conditions: 50 mg/kg/i.p.
[17] = target: T1, ERβ; experiment: ERE-Luc reporter gene assay in U251 GBM cells expressing ERβ; assay type: cell-based; conditions: 24 h
[18] = tested on: GSC-031417, GSC-012015, and GSC-040815 cells; experiment: Neurosphere formation assay; assay type: cell-based, human; conditions: 20 μM, three GSC model cells
[19] = tested on: primary GSCs; experiment: CellTiter Glo cell viability assay, patient derived GSCs; assay type: cell-based, human; conditions: multiple primary GSCs
[20] = tested on: ERβ target genes; experiment: RT-qPCR of ERβ target genes in patient derived GSCs; assay type: cell-based, human; conditions: 10 μM, 72h, GSC-040815, GSC-031417, RT-qPCR
[21] = tested on: U251 GBM cells; experiment: MTT cell viability assay, WT U251 GBM cells; assay type: cell-based, human
[22] = no reference given; cited from earlier work
[23] = tested on: GBM cells; conditions: read-out: IC50 in GBM cells, no reference given; cited from earlier work

Sequence of ERα (P03372 whole entry): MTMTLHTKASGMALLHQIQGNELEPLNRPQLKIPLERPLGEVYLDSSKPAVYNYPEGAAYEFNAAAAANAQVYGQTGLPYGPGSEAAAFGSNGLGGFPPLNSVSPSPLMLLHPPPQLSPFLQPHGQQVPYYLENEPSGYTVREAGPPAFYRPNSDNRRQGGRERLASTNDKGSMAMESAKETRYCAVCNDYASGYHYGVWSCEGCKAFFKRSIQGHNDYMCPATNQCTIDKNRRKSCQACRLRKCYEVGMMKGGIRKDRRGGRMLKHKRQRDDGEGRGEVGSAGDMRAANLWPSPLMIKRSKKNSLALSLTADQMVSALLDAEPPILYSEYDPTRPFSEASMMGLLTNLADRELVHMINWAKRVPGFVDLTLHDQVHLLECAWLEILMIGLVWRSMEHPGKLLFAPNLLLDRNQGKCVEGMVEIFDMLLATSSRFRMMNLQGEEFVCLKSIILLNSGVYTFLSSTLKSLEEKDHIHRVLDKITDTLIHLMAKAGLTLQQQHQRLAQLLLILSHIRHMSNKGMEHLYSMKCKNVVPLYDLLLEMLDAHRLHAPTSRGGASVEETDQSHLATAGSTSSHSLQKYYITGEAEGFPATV

CCN(CC)CCCC(C)NC(=O)c1ccc2c(c1)C(=O)c1ccccc1C2=O (stereo not shown) [CIDD-0149897]
ERα reporter activation [1]: no activation of ERα reporter | ERβ reporter activity [2]: enhanced ERβ reporter activity in a dose dependent manner | selectivity for ERβ over ERα [3]: 40 fold | invasion and colony formation of U251- ERβ KO cells [4]: no significant effect | effect on viability of normal human astrocytes [5]: little to no effect | effect on viability of normal human astrocytes ([5]; listed as CIDD-014987): no/limited effect | effect on viability of ERβ-KO cells [6]: little to no effect | effect on viability of ERβ-KO cells ([6]; listed as CIDD-014987): no/limited effect | IC50 [7]: 7.4 µM and ~7.4 µM | ERβ target genes in tumor tissues, RT-qPCR [8]: significant increase | tumor progression compared to vehicle ([8]; 5 days/week): significantly reduced | tumor weights compared to vehicle ([8]; after 35 days of treatment): significantly smaller | Ki-67 positive proliferating cells, IHC ([8]; tumors): fewer proliferating cells | GBM cells invasion [9]: significantly reduced | mean half-life, terminal elimination phase [10]: 9.59 h | time to maximum blood concentration [10]: less than 15 min | long-term colony formation [11]: significantly reduced | apoptosis of GBM cells [12]: significantly promoted apoptosis | Ki-67 positive cells, IHC [13]: significantly decreased | survival of GSC tumor-bearing mice [13]: significantly enhanced the survival | expression of stemness markers [14]: reduced the expression of stemness markers | IC50 [15]: 7 to 15 µM | survival of orthotopic U251 tumor bearing mice [16]: significantly increased the survival | Ki-67 positive proliferating cells, IHC ([16]; tumor sections): fewer proliferating cells | ERβ reporter activity [17]: enhanced ERβ reporter activity in a dose dependent manner in U251 GBM cells | neurosphere growth [18]: significantly reduced | cytotoxic activity against primary GSCs [19]: potent cytotoxic activity | expression of ERβ target genes [20]: activation of ERβ target genes | effect on U251 cell viability [21]: significantly decreased

Oc1ccc([C@H]2COc3cc(O)ccc3C2)cc1 [S-equol]
brain penetration [22]: lacks brain penetration | IC50 [23]: 100 to 200 µM
